Test results: ChEMBL document CHEMBL3045233, “Insecticidal and neuroblocking potencies of variants of the imidazolidine moiety of imidacloprid-related neonicotinoids and the relationship to partition coefficient and charge density on the pharmacophore” (J Agric Food Chem, 2007)

Experiments:
[1] = test system: Periplaneta americana; assay: Toxic effect in Periplaneta americana (American cockroach) assessed as paralyzed insects after 24 hr of abdomen compound injection by insecticidal assay; format: functional
[2] = biological target: T1, Nicotinic acetylcholine receptor alpha8 subunit (Periplaneta americana) (UniProt H6TY12); assay: Neuroblocking activity in Periplaneta americana (American cockroach) nicotinic acetylcholine receptor in abdominal fifth and sixth ganglia nerve assessed as neuroblocking concentration by neurophysiological test
T1 sequence (whole entry): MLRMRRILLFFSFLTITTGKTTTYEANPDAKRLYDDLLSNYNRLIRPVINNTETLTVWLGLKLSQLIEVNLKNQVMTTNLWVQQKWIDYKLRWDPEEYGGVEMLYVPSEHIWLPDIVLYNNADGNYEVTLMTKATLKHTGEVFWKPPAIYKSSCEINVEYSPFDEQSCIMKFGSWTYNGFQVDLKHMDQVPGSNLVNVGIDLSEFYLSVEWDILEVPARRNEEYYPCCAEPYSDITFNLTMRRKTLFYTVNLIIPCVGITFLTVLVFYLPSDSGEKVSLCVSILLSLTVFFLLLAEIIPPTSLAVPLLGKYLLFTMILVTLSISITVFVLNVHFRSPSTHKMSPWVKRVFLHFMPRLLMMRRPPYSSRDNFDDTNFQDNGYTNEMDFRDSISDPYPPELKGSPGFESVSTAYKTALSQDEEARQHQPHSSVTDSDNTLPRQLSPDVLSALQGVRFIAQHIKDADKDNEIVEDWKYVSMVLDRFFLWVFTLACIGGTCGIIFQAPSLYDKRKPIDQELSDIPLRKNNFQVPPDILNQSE

[3] = Hydrophobicity, log P of the compound in octanol-water by shaking-flask method; format: physicochemical

Row | SMILES | log(1/MLD) [1] | log(1/BC) [2] | logP [3]
1 | O=[N+]([O-])/N=c1\ccccn1Cc1cnc(Cl)s1 | 8.92 | 5.75 | 0.67
2 | O=[N+]([O-])/N=c1\sccn1Cc1cnc(Cl)s1 | 7.85 | 5.79 | 0.96
3 | CN1CCN(Cc2ccc(Cl)nc2)/C1=N/[N+](=O)[O-] | 8.53 | 3.81 | -0.07
4 | O=[N+]([O-])/N=c1\ccccn1Cc1ccc(Cl)nc1 | 8.88 | 5.09 | 0.51
5 | O=[N+]([O-])/N=c1\sccn1Cc1ccc(Cl)nc1 | 8.85 | 5.68 | 0.53
6 | O=[N+]([O-])/C=C1\CCCN1Cc1cnc(Cl)s1 | 8.96 | 6.31 | 
7 | O=[N+]([O-])/C=C1\SCCN1Cc1ccc(Cl)nc1 | 9.76 | 6.19 | 0.47
8 | O=[N+]([O-])/C=C1\NCCN1Cc1cnc(Cl)s1 | 9.34 | 5.73 | 0.03
9 | O=[N+]([O-])/C=C1\CCCN1Cc1ccc(Cl)nc1 | 9.84 | 6.43 | 0.45
10 | O=[N+]([O-])/N=C1\SCCN1Cc1cnc(Cl)s1 | 7.42 | 6 | 0.8
11 | O=[N+]([O-])/N=C1\NCCN1Cc1ccc(Cl)nc1 [IMIDACLOPRID] | 8.96 | 5.64 | 
12 | O=[N+]([O-])/N=C1\NCCCN1Cc1ccc(Cl)nc1 | 8.22 | 5.35 | 0.57
13 | O=[N+]([O-])/C=C1\NCCN1Cc1ccc(Cl)nc1 | 9.19 | 5.02 | -0.18
14 | CN1CCN(Cc2ccc(Cl)nc2)/C1=C/[N+](=O)[O-] | 7.77 | 3.84 | -0.84
15 | O=[N+]([O-])Nc1nccn1Cc1ccc(Cl)nc1 [DEHYDROIMIDACLOPRID] | 7.72 | 4.31 | 0.33
16 | O=[N+]([O-])/N=c1\[nH]ccn1Cc1cnc(Cl)s1 | 8.12 | 4.61 | 0.27
17 | O=[N+]([O-])/N=C1\NCCN1Cc1cnc(Cl)s1 [IMIDACLOTHIZ] | 8.42 | 5.97 | 0.61
18 | O=[N+]([O-])NC1=NCCN1Cc1ccc(Cl)nc1 [IMIDACLOPRID] |  |  | 0.53
